The subject of assay [1] is Myc-PKM2-WT and Myc-PKM2-C423/424A expressing HEK cells. The assay is described as follows: PEP accumulation in PKM2-expressing HEK cells after NO treatment. The format is cell-based. The note with it: HEK cells with endogenous PKM2 knocked down; 500 μM DETANO; FIG. 3h. How it is done:
(§1) HEK cell transfection was described herein. siRNA-mediated protein depletion was used in HEK cells. Two custom PKM2 siRNAs that target the 3′ UTR of PKM2 were obtained from Dharmacon. siRNA oligonucleotides (60 pmol/10 cm plate) were transfected into HEK cells using Lipofectamine RNAiMAX (Invitrogen) according to the manufacturer's protocol. After 24 hours, 5 μg pCMV-control, pCMV-PKM2-WT or pCMV-PKM2-C423A/424A were co-transfected with siRNA oligonucleotides (60 pmol/10 cm plate) into HEK cells using Lipofectamine 2000. After 24 hrs, cells were treated with 500 μM DETA-NO for 20 hr. Cells were then collected for assay.
(§2) The amount of pyruvate was measured using Pyruvate Assay Kit (Sigma). Kidneys harvested from SCoR^+/+, SCoR^−/−, PKM2^+/+ or PKM2^−/− mice (sham operation or AKI) were mechanically homogenized in Pyruvate Assay Buffer (1 mg/5 μl buffer). After extracts were clarified by centrifugation (20,000 g, 4° C., 20 min, ×2), supernatant was used for assay. GHB in the serum of SCoR^+/+ and SCoR^−/− mice was measured following the GHB enzymatic assay kit from BUHLMANN. […] The amount of PEP, 6PG, ATP, ADP and serine were respectively measured using PEP Colorimetric/Fluorometric Assay Kit (Sigma), 6 phosphogluconate Assay kit (abeam), ATP Colorimetric/Fluorometric Assay Kit (Sigma), ADP Colorimetric/Fluorometric Assay Kit (Sigma) and DL-Serine Assay kit (Fluorometric) (Biovision).

In assay [2] the target is T1, PKM2-C423/424A in HEK cells (Homo sapiens, UniProt P14618, C423A/C424A).
T1 construct: host or cells: HEK cells (endogenous PKM2 depleted by siRNA against the 3' UTR)
The assay is described as follows: Activity of Myc-PKM2-C423/424A after NO (DETA-NO) treatment in HEK cells. The assay is classed as cell-based. The note with it: 500 μM DETA-NO for 20 hr; FIG. 11b. How it is done: as §1
PKM activity was measured based on generation of pyruvate, which was oxidized by pyruvate oxidase to produce color (k=570 nm). To measure PKM2 activity in vitro, 250 ng recombinant PKM2-WT and PKM2-C423A/424A proteins were pre-incubated with substrate 2 μl fructose-1,6-bisphosphate (FBP)(250 μM) in 2 ml dialysis buffer [20 mM Tris-HCL (pH 7.9), 20% (v/v) glycerol, 0.1 M KCL, 0.2 mM EDTA], followed by dialysis to remove the free FBP in 2 L dialysis buffer. After 10 ng PKM2-FBP complex was treated with 200-300 μM SNO-CoA for 10 min at room temperature, the activity of PKM2 was measured. […] Extracts were clarified by centrifugation (20,000 g, 4° C., 20 min, ×2), and protein concentration was determined by bicinchoninic acid assay. […]

Assay [3] concerns Myc-PKM2-WT and Myc-PKM2-C423/424A HEK cells. The assay is described as follows: ADP/ATP ratio in PKM2-expressing HEK cells under NO treatment. The format is cell-based. As to conditions: HEK cells under NO treatment (DETANO 500 μM); FIG. 12. How it is done: as §1, §2
The subject of assay [4] is Myc-PKM2-WT and Myc-PKM2-C423/424A expressing HEK cells. As to the kind of experiment: 6-phosphogluconate accumulation in PKM2-expressing HEK cells after NO treatment. The note with it: DETANO 500 μM, FIG. 11d. The assay is classed as cell-based. How it is done: as §1, §2
The target of assay [5] is T2, recombinant PKM2-C423/424A (Homo sapiens, UniProt P14618, C423A/C424A).
T2 construct: 6xHis (C); made in house; host or cells: E. coli BL21-CodonPlus
As to the kind of experiment: Activity of recombinant PKM2-C423/424A after SNO-CoA treatment. The assay is classed as biochemical. The note with it: in vitro, 200-300 μM SNO-CoA for 10 min; FIG. 3f. The source says:
The mammalian cell expression plasmid pCMV-PKM2 was obtained from Origene. Mammalian cell expression plasmid pcDNA-SCoR was constructed by PCR-cloning. pCMV-PKM2 cysteine mutants were generated by QuikChange II Site-Directed Mutagenesis Kit (Agilent). For purification of recombinant PKM2, cDNA encoding PKM2-WT or PKM2-C423A/424A were cloned into pET21b (Novagen) to introduce a C-terminal 6×His tag on the expressed protein. The recombinant PKM2 proteins were purified from BL21-CodonPlus Competent E. coli Cells (Agilent). Overnight E. coli cultures were sub-cultured into 1 L of LB medium at 5%. At OD600 of 0.5, cultures were induced with […] IPTG and grown for a further 4 hr at 28° C. Cultures were centrifuged at 4000 g for 10 min to harvest the cells. Cell pellets from 1 L cultures were lysed in 10 mL of 1×PBS buffer containing 1 mM PMSF and protease-inhibitor cocktail by sonication. After centrifugation at 14500 g for 20 min, the supernatant was collected. […]
PKM activity was measured based on generation of pyruvate, which was oxidized by pyruvate oxidase to produce color (k=570 nm). […] After 10 ng PKM2-FBP complex was treated with 200-300 μM SNO-CoA for 10 min at room temperature, the activity of PKM2 was measured. […] Extracts were clarified by centrifugation (20,000 g, 4° C., 20 min, ×2), and protein concentration was determined by bicinchoninic acid assay. […]

The target in assay [6] is recombinant PKLR (Homo sapiens, UniProt P30613). As to the kind of experiment: Activity of recombinant PKLR after SNO-CoA treatment. The assay is classed as biochemical. The note with it: FIG. 8.
The target of assay [7] is recombinant PKM1 (Homo sapiens, UniProt P14618). As to the kind of experiment: Activity of recombinant PKM1 after SNO-CoA treatment. The assay is classed as biochemical. As to conditions: FIG. 8.
The target in assay [8] is T3, recombinant PKM2 (Homo sapiens, UniProt P14618).
T3 construct: 6xHis (C); made in house; host or cells: E. coli BL21-CodonPlus
As to the kind of experiment: PKM activity of recombinant PKM2 after SNO-CoA treatment. The assay is classed as biochemical. As to conditions: PKM2-FBP complex, 200-300 μM SNO-CoA for 10 min at room temperature; FIG. 3d. How it is done:
PKM activity was measured based on generation of pyruvate, which was oxidized by pyruvate oxidase to produce color (k=570 nm). To measure PKM2 activity in vitro, 250 ng recombinant PKM2-WT and PKM2-C423A/424A proteins were pre-incubated with substrate 2 μl fructose-1,6-bisphosphate (FBP)(250 μM) in 2 ml dialysis buffer [20 mM Tris-HCL (pH 7.9), 20% (v/v) glycerol, 0.1 M KCL, 0.2 mM EDTA], followed by dialysis to remove the free FBP in 2 L dialysis buffer. After 10 ng PKM2-FBP complex was treated with 200-300 μM SNO-CoA for 10 min at room temperature, the activity of PKM2 was measured. To measure PKM2 activity in kidney, kidneys were mechanically homogenized in lysis buffer [50 mM phosphate buffer, pH 7.0, 150 mM NaCl, 0.1 mM EDTA, 0.1 mM DTPA, 1 mM PMSF, and protease inhibitor mixture (Roche)]. Extracts were clarified by centrifugation (20,000 g, 4° C., 20 min, ×2), and protein concentration was determined by bicinchoninic acid assay. 10 μl (0.1 μg/μl) lysate was used to measure PKM2 activity. Assay of PKM2 activity was followed the protocol of Pyruvate Kinase Activity Colorimetric/Fluorometric Assay Kit from Biovison In.

Assay [9] deals with T4, tetrameric PKM2-WT (Homo sapiens, UniProt P14618).
T4 construct: 6xHis (C); made in house; host or cells: E. coli BL21-CodonPlus
As to the kind of experiment: PKM2 dimer and tetramer formation in vitro, PKM2-WT. The format is biochemical. The note with it: purified proteins, 200-300 μM SNO-CoA for 10 min; FIG. 3g. On the procedure: Assay of PKM2 dimer and tetramer in vitro follows previous descriptions. In brief, after 40 ng PKM2-FBP complex was treated with 200-300 μM SNO-CoA for 10 min at room temperature, 5 μl fresh glutaraldehyde (50%) was added to a reaction mixture containing 100 mM HEPES (pH 7.5) for 5 min at 37° C. The cross-linking reaction was terminated by addition of 5 μl 1M Tris-HCL (PH 8.0). Assay of PKM2 dimer and tetramer in situ was carried out as described previously. DSS (disuccinimidyl suberate; Thermo Scientific) (final 500 μM) was added to cells for 30 min at room temperature to cross-link proteins. Cells were lysed in RIPA Buffer and protein concentration was determined by bicinchoninic acid assay. Equal amounts of protein were separated by 4-15% Criterion™ Precast Midi Protein Gel and monomer, dimer and tetramer forms of PKM2 were detected with PKM2 antibody.

The test system of assay [10] is SCoR−/− mice. The assay is described as follows: Ascorbate-supplemented chow in SCoR−/− mice: ascorbate levels and I/R-induced AKI. The assay is classed as in vivo. The note with it: chow with 1% ascorbate for six weeks, FIGS. 7b-c. On the procedure:
AKI surgery was carried out as described herein. Mice of similar age (9-11 weeks) and body weight (male: 25-28 g; female: 22-25 g) were used for surgery. The mice were anesthetized with isoflurane (1-3%) in oxygen and then anesthesia was maintained with isoflurane (0.75-2.0%) and adjusted as needed. The fur in the surgical area was removed with clippers and the skin sterilized with 3 times alternating washes of betadine […] and alcohol. The mouse was placed on a thermostatic station during surgery. The skin and muscle were cut open along the back to expose both right and left kidneys. Gentle blunt dissection was performed through muscular layers to reveal the kidney and a Q-tip was used to mobilize and exteriorize the kidney. A 5-0 silk suture was used to clamp the pedicle to block the blood flow to the kidney to induce renal ischemia for 23 min in male mice or 50 min in female mice, then the sutures released to allow reperfusion. The identical steps were performed on the contra-lateral side. A silk suture was used to close the muscle layer of the incision followed by the closure of the skin wound with vicryl. […] Seram creatinine and BUN were determined after 24 hrs of reperfusion upon removal of the kidney (when larger volumes of blood can be collected). Seram creatinine and BUN were measured at University Hospital's Clinical Laboratories.

Structures are written as SMILES.

The values below come from patent US11931339B2, “Compositions and methods for treating tissue injury” (CASE WESTERN RESERVE UNIVERSITY, priority 2018, dated 2024).

recombinant PKM1, sequence (P14618 1-531 isoform P14618-2, species assumed): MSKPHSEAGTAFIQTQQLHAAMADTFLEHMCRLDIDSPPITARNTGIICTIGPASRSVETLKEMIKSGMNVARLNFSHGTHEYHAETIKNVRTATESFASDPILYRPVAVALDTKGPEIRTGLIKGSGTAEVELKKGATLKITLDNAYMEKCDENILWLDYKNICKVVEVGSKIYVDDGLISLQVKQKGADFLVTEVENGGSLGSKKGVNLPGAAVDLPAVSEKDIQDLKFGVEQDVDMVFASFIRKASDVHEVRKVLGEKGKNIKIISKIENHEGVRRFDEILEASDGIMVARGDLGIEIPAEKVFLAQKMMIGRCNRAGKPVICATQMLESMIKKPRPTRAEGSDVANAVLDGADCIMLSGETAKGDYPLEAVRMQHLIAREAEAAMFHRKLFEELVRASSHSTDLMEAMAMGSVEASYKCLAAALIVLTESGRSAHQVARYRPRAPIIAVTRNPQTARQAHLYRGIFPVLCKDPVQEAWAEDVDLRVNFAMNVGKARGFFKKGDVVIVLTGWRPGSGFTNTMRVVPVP
T3 sequence (P14618 whole entry, species assumed): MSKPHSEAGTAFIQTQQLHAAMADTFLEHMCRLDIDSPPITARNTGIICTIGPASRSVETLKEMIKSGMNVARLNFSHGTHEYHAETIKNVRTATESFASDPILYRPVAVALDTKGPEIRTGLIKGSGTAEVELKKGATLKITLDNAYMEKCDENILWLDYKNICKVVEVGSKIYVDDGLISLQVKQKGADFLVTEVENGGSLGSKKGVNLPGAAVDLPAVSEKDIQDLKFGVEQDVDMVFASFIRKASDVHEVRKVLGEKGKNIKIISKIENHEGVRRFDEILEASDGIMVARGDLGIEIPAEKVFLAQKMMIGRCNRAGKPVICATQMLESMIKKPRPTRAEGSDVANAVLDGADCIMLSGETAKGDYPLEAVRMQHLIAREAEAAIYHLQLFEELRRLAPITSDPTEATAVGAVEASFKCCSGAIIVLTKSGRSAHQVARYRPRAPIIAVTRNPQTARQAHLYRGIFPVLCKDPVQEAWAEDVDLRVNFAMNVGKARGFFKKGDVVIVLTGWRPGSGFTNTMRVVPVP
T4 sequence (P14618 whole entry, species assumed): as above
T2 sequence (P14618 2-531 C423A/C424A): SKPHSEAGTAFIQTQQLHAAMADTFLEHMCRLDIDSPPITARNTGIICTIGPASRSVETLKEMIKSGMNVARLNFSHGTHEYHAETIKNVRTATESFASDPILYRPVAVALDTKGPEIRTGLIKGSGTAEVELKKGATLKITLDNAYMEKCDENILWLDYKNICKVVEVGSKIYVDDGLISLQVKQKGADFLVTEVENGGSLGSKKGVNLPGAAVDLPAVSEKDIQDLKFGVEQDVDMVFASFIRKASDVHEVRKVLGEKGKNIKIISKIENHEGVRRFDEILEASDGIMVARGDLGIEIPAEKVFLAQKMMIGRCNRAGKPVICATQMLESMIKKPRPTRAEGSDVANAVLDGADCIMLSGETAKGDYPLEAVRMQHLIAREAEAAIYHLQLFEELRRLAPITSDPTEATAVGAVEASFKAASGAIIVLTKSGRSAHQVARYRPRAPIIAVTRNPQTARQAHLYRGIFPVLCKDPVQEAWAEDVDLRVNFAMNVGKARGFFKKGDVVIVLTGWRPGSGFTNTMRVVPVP
T1 sequence (P14618 2-531 C423A/C424A): as above
recombinant PKLR, sequence (P30613 whole entry, species assumed): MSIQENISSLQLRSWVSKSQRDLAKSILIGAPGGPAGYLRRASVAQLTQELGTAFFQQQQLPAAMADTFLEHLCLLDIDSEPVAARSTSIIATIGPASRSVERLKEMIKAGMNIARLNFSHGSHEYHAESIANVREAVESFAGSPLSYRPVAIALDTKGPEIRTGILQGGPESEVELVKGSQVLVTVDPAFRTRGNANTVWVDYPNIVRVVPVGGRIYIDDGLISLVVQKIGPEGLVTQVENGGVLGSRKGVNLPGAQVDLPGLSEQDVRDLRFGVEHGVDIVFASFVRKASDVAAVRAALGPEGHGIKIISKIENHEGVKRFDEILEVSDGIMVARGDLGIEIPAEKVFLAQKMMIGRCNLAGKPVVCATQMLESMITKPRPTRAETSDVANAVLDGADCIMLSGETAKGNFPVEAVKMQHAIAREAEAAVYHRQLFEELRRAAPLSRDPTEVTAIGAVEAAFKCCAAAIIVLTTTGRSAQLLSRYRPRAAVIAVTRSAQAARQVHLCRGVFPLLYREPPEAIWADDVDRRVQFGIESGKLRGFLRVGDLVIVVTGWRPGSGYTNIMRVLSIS

As to `NCCN(CCN)/[N+]([O-])=N/O` [DETA-NO], in [1], the “accumulation of PEP in Myc-PKM2-C423/424A cells” value was “not Myc-PKM2-C423/424A cells” and the “accumulation of PEP in Myc-PKM2-WT cells” value is “promoted the accumulation of PEP”. Also, the “activity of PKM2-C423/424A in HEK cells” value in [2] is recorded as “cannot be inhibited”. Moreover, the “ADP/ATP ratio between Myc-PKM2-WT and Myc-PKM2-C423/424A cells” value in assay [3] was “no different”. In addition, the “accumulation of 6-phosphogluconate in Myc-PKM2-WT vs. Myc-PKM2-C423/424A cells” value in assay [4] is “promotes accumulation of 6-phosphogluconate”.

With `CC(C)(COP(=O)(O)OP(=O)(O)OC[C@H]1O[C@@H](n2cnc3c(N)ncnc32)[C@H](O)[C@@H]1OP(=O)(O)O)[C@@H](O)C(=O)NCCC(=O)NCCSN=O` [SNO-CoA, S-nitroso-CoA], the “activity of PKM2-C423/424A after SNO-CoA treatment” value in assay [5] is recorded as “cannot be inhibited”. In addition, the “activity of recombinant PKLR after SNO-CoA treatment” value in [6] was “not other PK isoforms (PKM1 or PKLR), was directly inhibited”. Moreover, the “activity of recombinant PKM1 after SNO-CoA treatment” value in assay [7] is given as “not other PK isoforms (PKM1 or PKLR), was directly inhibited”. In [8], the “activity of recombinant PKM2 after SNO-CoA treatment” value is on record as “directly inhibited”. The “formation of tetrameric PKM2-WT” value in assay [9] is recorded as “inhibited formation of tetrameric PKM2-WT”.

`O=C1O[C@H]([C@@H](O)CO)C(O)=C1O` [ascorbate, ascorbic acid]: the “AKI phenotype (serum creatinine and BUN)” value in assay [10] was “no effect on the AKI phenotype”.
